Assays:
[1] = tested on: inflamed colonic epithelium of the rat; experiment: Tissue staining by charged dyes, inflamed colonic sacs; settings: 15 min incubation, mean±SEM
Protocol: Twenty-four hours prior to colitis induction the rats were deprived of food, but allowed free access to water. The water contained 10 mg/l of the laxatives sennoside-A and sennoside-B (X-Prep Liquid®, Rafa Pharmaceuticals, Israel) and sucrose (200 g/l). With the rats under light ether inhalation anesthesia, colitis was induced by intracolonic administration of 30 mg of dinitrobenzensulfonic acid (DNBS) dissolved in 1 ml of an ethanolic solution 25% (v/v). The solution was instilled slowly over 20 s via a flexible, perforated foley catheter, which was then immediately removed, leaving the rats in an upside down position for another 40 s. Colonic sacs, of either healthy or inflamed rat colonic tissues, were prepared as described above and filled, in separate studies, with 0.5 ml of aqueous solutions (containing 2% v/v DMSO) of either of the cationic dye, hematoxylin (1 mg/ml), or the anionic dye, eosin B (0.5 mg/ml). The sacs were incubated in 15 ml of PBS containing glucose (10 mM), at 37° C. (glass vial) for 15 min in a shaking bath, after which the sacs were cut open, measured for their surface area (ruler) and rinsed (PBS) three times. […] The concentration of dyes in the tissue homogenates was measured spectrophotometrically (Uvikon 933, Kontron Switzerland), at 292 nm (hematoxylin) or 523 nm (eosin B).

[2] = tested on: healthy colonic epithelium of the rat; experiment: Tissue staining by charged dyes, healthy colonic sacs; settings: 15 min incubation, mean±SEM
Protocol: Colonic sacs, of either healthy or inflamed rat colonic tissues, were prepared as described above and filled, in separate studies, with 0.5 ml of aqueous solutions (containing 2% v/v DMSO) of either of the cationic dye, hematoxylin (1 mg/ml), or the anionic dye, eosin B (0.5 mg/ml). The sacs were incubated in 15 ml of PBS containing glucose (10 mM), at 37° C. (glass vial) for 15 min in a shaking bath, after which the sacs were cut open, measured for their surface area (ruler) and rinsed (PBS) three times. The tissues incubated with eosin B were then homogenized in 3 ml of absolute methanol, while the tissues incubated with hematoxylin were homogenized in 3 ml of absolute ethanol. The concentration of dyes in the tissue homogenates was measured spectrophotometrically (Uvikon 933, Kontron Switzerland), at 292 nm (hematoxylin) or 523 nm (eosin B).

[3] = tested on: jejunal mucosa; experiment: Local oxidative stress (hypoxanthine/xanthine oxidase-FeSO4) in perfused rat jejunum; format: in vivo; settings: 20 min perfusion pretreatment before hydroxyl radical induction; for tissue LDH activity: mean±SEM
Protocol: Hydroxyl radicals were induced in the jejunum (15 cm long segment) of each of four group of anaesthetized Sabra rats, by the perfusion of a mixture of 6 mM hypoxanthine, 3 U/ml of xanthine oxidase, 10 mM FeSO4 and 1 mM EDTA in saline over 30 min, using a closed rat jejunal loop system at a rate of 1 ml/min, as described elsewhere [Kohen R. et al. J. Biol Chem. 1992, 267:21349-21354].
In separate studies two groups of rats (4 rats in each group) were perfused with either 35 U/ml SOD or liposomal SOD over 20 min. A 10 min saline rinse was then performed, followed by the hydroxyl radicals induction as described above. Similarly, the other two groups (4 rats each) were perfused with 5 mM free TMN or liposomal TMN over 20 min. A 10 min saline rinse was then performed, followed by hydroxyl radicals induction as described above. Control studies included (a) a group of rats, perfused with normal saline over 30 minutes prior to the oxidative damage induction, (b) a group of rats, perfused with normal saline for 20 min (naive control). At the end of each study, the perfused jejunal segment was separated from the anaesthetized animal, the mucosal epithelial layer delicately scraped and homogenized in 5 ml of distilled water on ice.
Assuming that tissue insult would cause leakage of enterocyte contents, the induced damage was characterized by measuring tissue (a) activity of lactate dehydrogenase (LDH) at 340 nm with pyruvic acid as the substrate and NADH as the electron donor. For this purpose, 1 ml of the tissue homogenate was centrifuged at 5000 g for 15 min. LDH activity was measured in the supernatant; (b) potassium levels by atomic absorption. All measurements were repeated four times, and the results were normalized to tissue dry weight.

[4] = tested on: epithelium of the rat intestine; experiment: Tissue uptake of free and liposomal SOD and TMN in intestinal sacs; settings: for tissue uptake: 60 min incubation, mean±SEM
Protocol: The abdomens of anesthetized healthy Sabra rats were cut open and 10 cm long segments of the distal colon were excised, separated and rinsed with PBS. Colon sacs (5 cm each) were prepared by tying one end with 3/0 silk suture, filling with 0.4 ml of free or liposomal suspension of either TMN or FITC-SOD (diluted×10 in PBS), and tying at the other end.
The sacs were incubated in 15 ml of PBS, containing 10 mM glucose, at 37° C., in a glass vial in a shaking bath for 60 min. At the end of the incubation, the sacs were cut open, rinsed three times by PBS immersion and weighed. For detection of FITC-SOD attachment and uptake (subsequently referred to generally as uptake, as internalization and attachment cannot be discriminated using these methods), the colon sac preparations were homogenized (Polytron, Kinematicas, Berlin, Germany) in a solution containing isopropanol: pH 9.0 borate buffer 9:1. One milliliter of the homogenate was centrifuged at 14,000 rpm for 15 min. The level of fluorescence in the supernatant was then measured by a spectrofluorimeter (Perkin-Elmer LS-SB, Bucks, England) at λ excitation=495, λ emission=525. For the detection of TMN uptake, tissues were homogenized in water containing 1% v/v TritonX-100. One ml of the homogenate was centrifuged (5000 rpm, 15 min), and TMN concentration was measured by EPR.

[5] = tested on: tumor recurrence; settings: animal model, peritoneal wound site; cited from earlier work

Compound	dye attachment to inflamed colonic epithelium [1]	dye attachment to healthy colonic epithelium [2]	tissue potassium levels [3]	tissue LDH activity [3]	tissue uptake relative to free SOD uptake [4]	tissue uptake [4]	reduction of tumor recurrence [5]
O=C(O)c1ccccc1-c1c2cc([N+](=O)[O-])c(=O)c(Br)c-2oc2c(Br)c(O)c([N+](=O)[O-])cc12 [eosin B]	0.19±0.012 μg/cm^2	0.12±0.011 μg/cm^2					
CC1(C)CC(N)CC(C)(C)N1[O] [free TMN, 4-amino tempol]			0.33±0.08 μmol/mg tissue	9.0±1.3 U/mg tissue	3 fold	6.8±1.1 % uptake of initial amount	
Oc1cc2c(cc1O)[C@@H]1c3ccc(O)c(O)c3OC[C@]1(O)C2 [hematoxylin]	19.6±1.36 μg/cm^2	26.2±2.8 μg/cm^2					
catalase							40%
superoxide dismutase [native SOD]			0.37±0.03 μmol/mg tissue	11.8±0.3 U/mg tissue		2.5±1.6 % uptake of initial amount	50%

— US20070212403A1, “Method for Selecting Cationic or Anionic Liposomes for Treatment of a Mucosa Membrane, and Kit Comprising the Same” (Yissum Research Development Company of the Hebrew …, priority 2003, published 2007)
